In assay [1] the target is T1, Adenosine receptor A1 (Rattus norvegicus, UniProt P25099).
T1 sequence (P25099 whole entry): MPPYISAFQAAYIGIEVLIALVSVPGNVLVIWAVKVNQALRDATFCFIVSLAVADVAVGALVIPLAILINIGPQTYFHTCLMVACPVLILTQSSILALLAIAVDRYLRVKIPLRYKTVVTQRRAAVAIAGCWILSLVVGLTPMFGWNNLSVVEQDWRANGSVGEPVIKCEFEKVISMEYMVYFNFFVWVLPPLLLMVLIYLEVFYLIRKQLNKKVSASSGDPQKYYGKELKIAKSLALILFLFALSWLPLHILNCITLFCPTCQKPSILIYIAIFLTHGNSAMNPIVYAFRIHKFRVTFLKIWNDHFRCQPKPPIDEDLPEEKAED
Description: Antagonism of adenosine A1 receptor assessed from the ability to inhibit binding of [3H]cyclohexyladenosine to rat cerebral cortical membranes. The format is cell membranes, Membrane.

The species entered for assay [2] is Cavia porcellus. Description: Ability to inhibit 2-chloroadenosine (15 uM)-elicited accumulations of cyclic AMP in guinea pig cerebral cortical slices.

Consider 25 compounds from ChEMBL document CHEMBL1122769, “Mesoionic xanthine analogues: antagonists of adenosine receptors” (J Med Chem, 1984).

What is called IC50 is the midpoint of a concentration-inhibition curve. A low value points to higher potency.

Consider `CCC1C(=O)SC2N(C)C=CN2C1=O` (configuration not stated), for which the IC50 in assay [1] was 290 µM; in assay [2] it was greater than 250 µM.
For `CCN1C(=O)C(Cc2ccc(Cl)cc2)C(=O)N2N=CSC12` (configuration not stated) the same measures were 45 µM and greater than 250 µM.
Consider `CCN1C(=O)C(Cc2ccccc2)C(=O)N2N=CSC12` (configuration not stated), for which the IC50 in assay [1] is 58 µM; in assay [2], greater than 200 µM.
With `O=C1C(Cc2ccccc2)C(=O)N(CC2CC2)C2SC=CN12` (configuration not stated), the values for the IC50 in assay [1] and in assay [2] were 160 µM and 200 µM, respectively.
As to `CCC1C(=O)N2C=CSC2N(Cc2ccccc2)C1=O` (configuration not stated), the values for the IC50 in assay [1] and in assay [2] were 160 µM and 150 µM, respectively.
Turning to `CCCCCN1C(=O)C(C)C(=O)N2N=CSC12` (configuration not stated), the figures for the IC50 in assay [1] and in assay [2] were 120 µM and greater than 250 µM, respectively.
On the same counts, the results for `CCCC1C(=O)N(C)C2N(C)C=NN2C1=O` (configuration not stated) are greater than 250 µM and greater than 250 µM.
On the same counts, the results for `CCC1C(=O)N(CC)C2SC(c3ccccc3)=NN2C1=O` (configuration not stated) are 80 µM and 250 µM.
On the same counts, the results for `CCC1C(=O)N(CC)C2SC=NN2C1=O` (configuration not stated) are 72 µM and greater than 250 µM.
For `CCC1C(=O)N2C=CSC2N(CC2CC2)C1=O` (configuration not stated), the IC50 in assay [1] worked out at 100 µM; in assay [2], 120 µM.
For `CCC1C(=O)N(CC)C2SC(C)=NN2C1=O` (configuration not stated) the same measures were 500 µM and greater than 250 µM.
For `CCCC1C(=O)N(CC(C)C)C2Sc3ccccc3N2C1=O` (configuration not stated) the same measures were 30 µM and 20 µM.
`Cn1c(=O)c2nc[nH]c2n(C)c1=O` [THEOPHYLLINE]: half-maximal inhibition in assay [2] (IC50) required 42 µM.
Regarding `CCn1c(=O)c2nc[nH]c2n(CC)c1=O`, the IC50 in assay [1] turned out to be 6.4 µM; in assay [2], 12 µM.
For `O=c1c2[nH]cnc2n(Cc2ccccc2)c(=O)n1Cc1ccccc1` the same measures were 7 µM and 35 µM.
On the same counts, the results for `CCC1C(=O)N2C=Cc3ccccc3C2N(CC)C1=O` (configuration not stated) are 27 µM and 30 µM.
For the compound `CCC1C(=O)N2C=CSC2N(CC)C1=O` (configuration not stated), the IC50 in assay [1] worked out at 120 µM; in assay [2], 150 µM.
As for `CCC1C(=O)N2C=CSC2N(Cc2cc(OC)cc(OC)c2)C1=O` (configuration not stated), the IC50 is 95 µM in assay [1] and 250 µM in assay [2].
On to `Cn1c(=O)c2nc(-c3ccccc3)[nH]c2n(C)c1=O` [8-PHENYL THEOPHYLLINE], for which the IC50 in assay [2] stood at 1.65 µM.
`Cn1c(=O)c2c(ncn2C)n(C)c1=O` [CAFFEINE] had an IC50 in assay [2] of 150 µM.
Consider `CCCC1C(=O)N2C=CSC2N(CCC)C1=O` (configuration not stated), for which the IC50 in assay [1] was 54 µM; in assay [2] it was 250 µM.
Take `CCN1C(=O)CC(=O)N2N=CSC12` (configuration not stated): the IC50 in assay [1] is 110 µM; in assay [2], greater than 250 µM.
For `CCC1C(=O)N(CC(C)C)C2Sc3ccccc3N2C1=O` (configuration not stated), the figures for the IC50 in assay [1] and in assay [2] were 41 µM and 15 µM, respectively.
Regarding `CCN1C(=O)C(C)C(=O)N2N=CSC12` (configuration not stated), the IC50 in assay [1] is 60 µM; in assay [2] it was greater than 250 µM.
In the case of `CCCn1c(=O)c2nc[nH]c2n(CCC)c1=O`, the IC50 is 1.5 µM in assay [1] and 8.1 µM in assay [2].
